Reference: patent publication US20090226367A1, “COMPOSITIONS COMPRISING AN ANTI-CA125 ANTIBODY AND A CYTOTOXIC COMPOUND AND THEIR USE FOR THE TREATMENT OF CANCER” (priority 2005, published 2009)

Legend:
[1] = nude mice; cited from earlier work
[2] = system: OVCAR-3 subcutaneous tumors; assay: subcutaneous OVCAR-3 xenograft model, tumor growth; format: in vivo, NCr nu/nu mice; conditions: for Tumor Regression (number of animals): groups of 8 mice
Protocol: Model of Human Cancer: A subcutaneous OVCAR-3 xenograft model was used.
Animals: Female NCr nu/nu (“nude”) mice (Taconic Farms, Germantown, N.Y.) 6-7 weeks old were used for all studies. All animals were housed in sterile micro-isolators, and were given autoclaved food and water ad libitum.
OVCAR-3 cells were serially propagated in vivo 3 times within the peritoneal cavities of NCr nu/nu mice, followed by subcutaneous implantation in the flank of the mice. […] Mice were injected with 0.2 ml volume of the cell suspension for a final dose of 3×10^6 cells. Beginning approximately 10 days post-implantation, palpable tumors were measured with electronic calipers (Fowler Instruments, Newton, Mass.) across two perpendicular dimensions. Mice were randomly sorted into groups of eight based on tumor volume. […] Tumor measurements and observations were recorded twice a week. Tumor volume was calculated using the standard formula (Length×Width^2)×0.5.
Control groups consisted of mice injected with 0.9% sodium chloride alone. […] Tumors were measured two times per week. Mice were sacrificed when the tumor volume was greater than 10% of their body weight.
Tumor volumes were compared by Mann-Whitney analysis using Prizm software (GraphPad Software, Inc.). Regression was defined as beginning when a tumor reached <50% of its starting volume and ending when the tumor reached >50% of its initial volume. Partial regression (PR) was defined as when a tumor decreased by 50% or more in volume for at least 7 days, and then later regrew. Complete regression (CR) was defined as when a tumor disappeared for at least 7 days.

[3] = paclitaxel 10 mg/kg weekly for three weeks (q3d7)

## CC(=O)O[C@H]1C(=O)[C@@]2(C)[C@H]([C@H](OC(=O)c3ccccc3)[C@]3(O)C[C@H](OC(=O)[C@H](O)[C@@H](NC(=O)c4ccccc4)c4ccccc4)C(C)=C1C3(C)C)[C@]1(OC(C)=O)CO[C@@H]1C[C@@H]2O [Paclitaxel, paclitaxel]
[1]
  MTD: > 30 mg/kg
[2]; paclitaxel 10 mg/kg single dose (day 0), day 40, relative to saline control
  % T/C: 58%
[2]; paclitaxel 10 mg/kg single dose (day 0)
  Tumor Regression (number of animals): no animals had observable regression of tumors
[2]; [3]
  Duration (days) of tumor regression: 14 days
  PR (partial regression, number of animals): 1
  Tumor Regression (number of animals): 1
[2]; paclitaxel 10 mg/kg weekly for three weeks (q3d7), day 40
  % T/C: 29%
[2]; three weekly treatments with 10 mg/kg paclitaxel
  animals demonstrating regression of tumors: 10%
